The values that follow come from patent US7960377B2 (priority 2008, dated 2011).

The target of assay [1] is T1, rat CB2 receptor (Rattus norvegicus, UniProt Q9QZN9).
T1 sequence (Q9QZN9 1-360): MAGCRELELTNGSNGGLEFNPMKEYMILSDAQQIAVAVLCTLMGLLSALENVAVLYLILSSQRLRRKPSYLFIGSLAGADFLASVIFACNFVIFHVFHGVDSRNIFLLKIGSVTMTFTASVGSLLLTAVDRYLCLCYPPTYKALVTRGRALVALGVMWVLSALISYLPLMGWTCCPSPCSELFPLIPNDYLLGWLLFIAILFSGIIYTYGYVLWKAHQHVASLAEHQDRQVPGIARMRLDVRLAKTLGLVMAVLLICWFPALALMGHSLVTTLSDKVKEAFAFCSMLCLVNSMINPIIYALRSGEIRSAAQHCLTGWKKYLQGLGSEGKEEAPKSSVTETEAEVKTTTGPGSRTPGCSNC
Description: cell-based. Format: cell-based.

Assay [2] addresses human CB1 receptor (Homo sapiens, UniProt P21554). Description: cell-based.

Chain of human CB1 receptor (P21554 whole entry): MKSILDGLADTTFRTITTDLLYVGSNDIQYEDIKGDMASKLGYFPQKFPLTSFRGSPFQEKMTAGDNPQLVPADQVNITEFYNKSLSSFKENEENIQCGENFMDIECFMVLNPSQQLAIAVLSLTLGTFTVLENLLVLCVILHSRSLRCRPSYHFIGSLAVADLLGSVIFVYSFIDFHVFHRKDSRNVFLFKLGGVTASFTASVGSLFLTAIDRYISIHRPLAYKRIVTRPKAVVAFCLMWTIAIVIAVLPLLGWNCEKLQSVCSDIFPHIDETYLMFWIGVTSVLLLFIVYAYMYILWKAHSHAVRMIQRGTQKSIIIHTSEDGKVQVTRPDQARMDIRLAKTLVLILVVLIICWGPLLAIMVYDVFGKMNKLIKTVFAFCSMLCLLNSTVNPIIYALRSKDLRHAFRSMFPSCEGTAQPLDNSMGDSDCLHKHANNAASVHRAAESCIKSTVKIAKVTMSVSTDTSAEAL

In the case of `COC(=O)[C@@H]1CCCCN1C(=O)c1cnc2c(c1)N(S(=O)(=O)c1ccc(C(F)(F)F)cc1)CCO2` [Example 68, (S)-methyl 1-(1-(4-(trifluoromethyl)phenylsulf-onyl)-2,3-dihydro-1H-pyrido[2,3-b][1,4]oxazine-7-carbonyl)piperidine-2-carboxylate], the EC50 in assay [1] is at most 0.03 µM; in assay [2] it was above 30 µM.

For the molecule `CCOC(=O)C1(NC(=O)c2cnc3c(c2)N(S(=O)(=O)c2ccc(C(F)(F)F)cc2)CCO3)CC1` [Example 70, ethyl 1-(1-(4-(trifluoromethyl)phenylsulf-onyl)-2,3-dihydro-1H-pyrido[2,3-b][1,4]oxazine-7-carboxamido)-cyclopropanecarboxylate], the EC50 in assay [1] was at most 0.03 µM; in assay [2] it was above 30 µM.

Take `CCOC(=O)C1(NC(=O)c2cnc3c(c2)N(S(=O)(=O)c2ccc(C(F)(F)F)cc2)CCO3)CCC1` [Example 71, ethyl 1-(1-(4-(trifluoro-methyl)phenylsulfonyl)-2,3-dihydro-1H-pyrido-[2,3-b][1,4]oxazine-7-carboxamido)cyclo-butanecarboxylate]: the results for the EC50 in assay [1] and in assay [2] were at most 0.03 µM and above 30 µM, respectively.

Turning to `CC(C)(C)NC(=O)c1cnc2c(c1)N(S(=O)(=O)c1cccc(C(F)(F)F)c1)CCO2` [Example 83, N-tert-butyl-1-(3-(trifluoromethyl)phenylsulf-onyl)-2,3-dihydro-1H-pyrido[2,3-b][1,4]oxazine-7-carboxamide], the EC50 in assay [1] was at most 0.03 µM; in assay [2], above 30 µM.

Regarding `CC(C)(C)NC(=O)c1cnc2c(c1)N(S(=O)(=O)c1cccc(Cl)c1)CCO2` [Example 89, N-tert-butyl-1-(3-chlorophenylsulfonyl)-2,3-dihydro-1H-pyrido[2,3-b][1,4]oxazine-7-carboxamide], the 50% effective concentration (EC50) in assay [1] is at most 0.03 µM; in assay [2], above 30 µM.

For the molecule `CC(C)(C)NC(=O)c1cnc2c(c1)N(S(=O)(=O)c1ccsc1)CCO2` [Example 90, N-tert-butyl-1-(thiophen-3-ylsulfonyl)-2,3-dihydro-1H-pyrido[2,3-b][1,4]oxazine-7-carboxamide], the figures for the EC50 in assay [1] and in assay [2] were at most 0.03 µM and above 30 µM, respectively.

On to `Cc1csc(S(=O)(=O)N2CCOc3ncc(C(=O)NC(C)(C)C)cc32)c1` [Example 92, N-tert-butyl-1-(4-methylthiophen-2-ylsulfonyl)-2,3-dihydro-1H-pyrido[2,3-b][1,4]oxazine-7-carboxamide], for which the concentration giving a half-maximal response (EC50) in assay [1] is at most 0.03 µM; in assay [2], above 30 µM.

With `CC(C)(CO)NC(=O)c1cnc2c(c1)N(S(=O)(=O)c1ccc(Cl)c(Cl)c1)CCO2` [Example 95, 1-(3,4-dichlorophenylsulfonyl)-N-(1-hydroxy-2-methylpropan-2-yl)-2,3-dihydro-1H-pyrido[2,3-b][1,4]oxazine-7-carboxamide], the values for the EC50 in assay [1] and in assay [2] were at most 0.03 µM and above 30 µM, respectively.

On to `CC(C)(CO)NC(=O)c1cnc2c(c1)N(S(=O)(=O)c1ccc(Cl)cc1F)CCO2` [Example 96, 1-(4-chloro-2-fluorophenylsulfonyl)-N-(1-hydroxy-2-methylpropan-2-yl)-2,3-dihydro-1H-pyrido[2,3-b][1,4]oxazine-7-carboxamide], for which the results for the EC50 in assay [1] and in assay [2] were at most 0.03 µM and above 30 µM, respectively.

In the case of `CC(C)(O)CNC(=O)c1cnc2c(c1)N(S(=O)(=O)c1ccc(Cl)cc1F)CCO2` [Example 97, 1-(4-chloro-2-fluorophenylsulfonyl)-N-(2-hydroxy-2-methylpropyl)-2,3-dihydro-1H-pyrido[2,3-b][1,4]oxazine-7-carboxamide], the EC50 is at most 0.03 µM in assay [1] and above 30 µM in assay [2].

On to `CC(C)(O)CNC(=O)c1cnc2c(c1)N(S(=O)(=O)c1ccc(Cl)c(Cl)c1)CCO2` [Example 98], for which the concentration giving a half-maximal response (EC50) in assay [1] was at most 0.03 µM; in assay [2], above 30 µM.

As to `CC(C)(CO)NC(=O)c1cnc2c(c1)N(S(=O)(=O)c1ccc(F)c(Cl)c1)CCO2` [Example 99, 1-(3-chloro-4-fluorophenylsulfonyl)-N-(1-hydroxy-2-methylpropan-2-yl)-2,3-dihydro-1H-pyrido[2,3-b][1,4]oxazine-7-carboxamide], the figures for the EC50 in assay [1] and in assay [2] were at most 0.03 µM and above 30 µM, respectively.

For `COc1ccc(S(=O)(=O)N2CCOc3ncc(C(=O)NC(C)(C)CO)cc32)c(F)c1` [Example 103, 1-(2-fluoro-4-methoxyphenylsulfonyl)-N-(1-hydroxy-2-methylpropan-2-yl)-2,3-dihydro-1H-pyrido[2,3-b][1,4]oxazine-7-carboxamide], the half-maximal effective concentration (EC50) in assay [1] is at most 0.03 µM; in assay [2], above 30 µM.

As for `COc1ccc(S(=O)(=O)N2CCOc3ncc(C(=O)NCC(C)(C)O)cc32)cc1Cl` [Example 104], the EC50 in assay [1] is at most 0.03 µM; in assay [2], above 30 µM.

Consider `CC(C)(CN1CCOCC1)NC(=O)c1cnc2c(c1)N(S(=O)(=O)c1ccc(Cl)cc1F)CCO2` [Example 113, 1-(4-chloro-2-fluorophenylsulfonyl)-N-(2-methyl-1-morpholinopropan-2-yl)-2,3-dihydro-1H-pyrido[2,3-b][1,4]oxazine-7-carboxamide], for which the EC50 is at most 0.03 µM in assay [1] and above 30 µM in assay [2].

As for `O=C(N[C@@H]1CCC[C@H]1O)c1cnc2c(c1)N(S(=O)(=O)c1ccc(Cl)c(Cl)c1)CCO2` [Example 133, 1-(3,4-dichlorophenyl-sulfonyl)-N-((1R,2R)-2-hydroxycyclopentyl)-2,3-dihydro-1H-pyrido[2,3-b][1,4]oxazine-7-carboxamide], the half-maximal effective concentration (EC50) in assay [1] was at most 0.03 µM; in assay [2] it was above 30 µM.

`O=C(NC1CCC1)c1cnc2c(c1)N(S(=O)(=O)c1ccc(Cl)c(Cl)c1)CCO2` [Example 137, N-cyclobutyl-1-(3,4-dichlorophenylsulfonyl)-2,3-dihydro-1H-pyrido[2,3-b][1,4]oxazine-7-carboxamide]: the EC50 in assay [1] is at most 0.03 µM; in assay [2], above 30 µM.

Turning to `O=C(NCc1ccccc1)c1cnc2c(c1)N(S(=O)(=O)c1ccc(Cl)c(Cl)c1)CCO2` [Example 138, N-benzyl-1-(3,4-dichlorophenylsulfonyl)-2,3-dihydro-1H-pyrido[2,3-b][1,4]oxazine-7-carboxamide], the concentration giving a half-maximal response (EC50) is at most 0.03 µM in assay [1] and above 30 µM in assay [2].

Consider `CCOC(=O)C1(NC(=O)c2cnc3c(c2)N(S(=O)(=O)c2ccc(Cl)c(Cl)c2)CCO3)CCC1` [Example 139, ethyl 1-(1-(3,4-dichloro-phenylsulfonyl)-2,3-dihydro-1H-pyrido[2,3-b][1,4]oxazine-7-carboxamido)cyclobutane-carboxylate], for which the EC50 is at most 0.03 µM in assay [1] and above 30 µM in assay [2].

As to `CC(C)(C)NC(=O)c1cnc2c(c1)N(S(=O)(=O)N1CCOCC1)CCO2` [Example 140, N-tert-butyl-1-(morpholinosulfonyl)-2,3-dihydro-1H-pyrido[2,3-b][1,4]oxazine-7-carboxamide], the concentration for a half-maximal effect (EC50) is at most 0.03 µM in assay [1] and above 30 µM in assay [2].

Take `CC(C)(CO)NC(=O)c1cnc2c(c1)N(S(=O)(=O)N1CCCCC1)CCO2` [Example 146, N-(1-hydroxy-2-methylpropan-2-yl)-1-(piperidin-1-ylsulfonyl)-2,3-dihydro-1H-pyrido[2,3-b][1,4]oxazine-7-carboxamide]: the concentration giving a half-maximal response (EC50) is at most 0.03 µM in assay [1] and above 30 µM in assay [2].

The EC50 is the concentration that produces a half-maximal response. Lower therefore signals a more potent agent.
